Where “and” joins values, the source holds several entries; their conditions need not be identical. Equal values may be shown once.
Assays:
[1] = system: cAMP in primary hepatocytes; assay: Measurement of cAMP levels; format: cell-based, mouse; conditions: for cAMP, mean / cAMP: Gluc; for cAMP, mean: n=4 (Ctrl_Gluc 10.79); for cAMP: Supp. fig.3c, individual replicates
Protocol: At the end of indicated treatments, primary hepatocytes were collected in lysis buffer. The cAMP contents of cell lysates were then determined using cAMP ELISA kits (R&D) and normalized by total protein content as determined by BCA assay (Thermo).

[2] = system: CREB phosphorylation, CRTC2 dephosphorylation; assay: Immunoblotting/immunostaining of P-CREB and CRTC2 in primary hepatocytes; format: cell-based, mouse; conditions: for Relative P-CREB/CREB density: Supp. Fig.10 c, individual replicates
Protocol: Immunoblotting and immunoprecipitation assays were performed as previously described, with antibodies recognizing CREB, Ser133-P-CREB, AMPK, P-AMPK, AKT, P-AKT (Cell Signaling), PGC-1α (Merck), CRTC2 (Calbiochem), PCK1 (Santa Cruz), SREBP1 (Santa Cruz), SREBP2 (BD), HA (Convance), LXRα (Santa Cruz), FLAG (Sigma), GST (Covance), HIS (Abmart), GAPDH (AOGMA), α-TUBULIN (Abmart), β-ACTIN (Abmart), and other antibodies (Supplementary Table 3). For immunostaining assays, primary cultured hepatocytes seeded on coverslips were fixed with 4% paraformaldehyde for 20 min, permeabilized with 0.3% Triton X-100 in PBS, and then blocked by 5% normal goat serum and 0.3% Triton X-100 in PBS, followed by incubation with anti-CREB (1:1000), anti-P-CREB (1:1000), or anti-HA (1:3000) antibodies for 1 h at 4 °C. Slides were then washed, and after washing, slides were incubated with fluorochrome-conjugated secondary antibodies (Invitrogen). Slides were then washed and mounted with Vectashield mounting media containing 4, 6-diamidino-2-phenylindole (DAPI).

mouse Per2 promoter = assay: Per2-Luc reporter (CREB/CRTC2-mediated transcription of PER2); format: cell-based; conditions: preliminary research
Protocol: SREBP1 (m-SREBP1) and fat acid synthase (FASN) in glucagon- insulin treated cells, […]
mTORC1 activity at the same time. mTORC1 h as been reported to enh ance SREBP1c mediated lipogenesis m ainly by increasing the mat uration of SREBP1c prot eins (2015, The CREB coactivator CRTC2 controls hepatic lipid metabolism by regulating S REBP1, Nature, […]
Aug 13;524(7564):243- 6.). […]
hyperactivation caused by liver specific TSC1 deletion is insufficient to induce SREBP1c activation and de novo lipogenesis in the liver of high fat diet fed mice (Akt stimulates hepatic SREBP1c and lipogenesis through parallel mTORC1- dependent and independent pathways. Cell Metabolism . 2011. 14.1: 21- 32). Considered the requirement of TSC1 for PER2 to inhibit mTORC1 activity, the reduction of PER2 by APC may not be sufficient to induce SREBP1c activati on. Moreover, ou r dat a su ggest that APC redu ces the trans cription of SREBP1c in vivo (Figures 5b and 5g) , which would result in the decrease of whole SREBP1c protein levels and overcom e the effect on lipogenesis caused by APC activation of mTORC1. […]
Data are repres ented as mean ± SEM (n=4). *, p < 0.05; **, p< 0.01. pval ues wer e determined by one-way ANOVA followed Dunnett’s multiple comparisons test (Left).
The over-expr essed proteins FLAG- CREB and HA-CRTC2-171A were detected in the lysates of the luciferase reporter assay by immunoblotting (Right). […]

CREB / CRTC3 interaction = target: T1, CREB / CRTC3 interaction (Homo sapiens, UniProt P16220); assay: Co-immunoprecipitation of GFP-CRTC3 by MYC-CREB, HEK293T; format: cell-based; conditions: overexpression HEK293T cells, APC 10 μM
T1 construct: expressed in transfected cells; host or cells: HEK293T
Protocol: 1 Supplementary Figure 2.
2 a) Immunoblot of HA-P300 recovered from HEK293T cell lysate using GST-CREB beads. APC
3 (10 μM) was incubated with cells for 1-h before FKS (10 nM) stimulation and was included in the
4 following pull-down mixtures (n=3). One of two independent experiments presented here.
5 b) Immunoblot for recovered GFP-CRTC1 or (c) GFP-CRTC3 immunoprecipitated by MYC-CREB
6 from overexpression HEK293T cell line. APC (10 μM) was incubated with cells for 1-h before FKS
7 (10 nM) stimulation and was included in the following pull-down mixtures. One of two independent
8 experiments presented here.
9 d) SPR sonogram traces of APC binding with HIS-CREB proteins immobilized to NTA-chip. The
10 concentration series of APC was as indicated.
11 e) SPR sonogram traces of APC flowing through HIS-CRTC2-S171A proteins immobilized on
12 NTA-chip. The concentration of APC was as indicated.
13 f) The luciferase enzymatic activity of HEK293T incubated with APC. Cells over-expressed
14 luciferase CRE-Luc reporter and were stimulated by FSK (10 nM) for 5-h before lysis, which was
15 then incubated with APC (concentration indicated) for 30 min before luciferase activity determination
16 (n=3 per treatment). Data are represented as mean ± SEM. *, p < 0.05; **, p < 0.01; p values were
17 determined by one-way ANOVA followed Dunnett’s multiple comparisons test. […]

T1 sequence (P16220 whole entry): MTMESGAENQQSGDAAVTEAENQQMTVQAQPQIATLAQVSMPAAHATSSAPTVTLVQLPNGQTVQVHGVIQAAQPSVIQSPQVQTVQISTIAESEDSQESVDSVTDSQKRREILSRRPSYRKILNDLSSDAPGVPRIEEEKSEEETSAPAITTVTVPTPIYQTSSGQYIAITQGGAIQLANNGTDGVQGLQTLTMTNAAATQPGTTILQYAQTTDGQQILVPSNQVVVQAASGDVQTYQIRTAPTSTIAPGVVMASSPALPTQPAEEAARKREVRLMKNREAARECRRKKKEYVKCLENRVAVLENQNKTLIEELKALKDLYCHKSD

CC(C)=CCc1cc(C=CC(=O)O)cc(CC=C(C)C)c1O [APC, 3,5-diprenyl-4-hydroxycinnamic acid]
cAMP, mean ([1]; APC 0.5H): 11.36 pmol/µg | cAMP, mean ([1]; APC 1H): 10.43 pmol/µg | cAMP, mean ([1]; APC 5H): 10.31 pmol/µg | cAMP ([1]; APC 0.5H): 9.765 pmol/µg and 13.6965 pmol/µg and 13.5803 pmol/µg and 8.4137 pmol/µg | cAMP ([1]; APC 1H): 10.9076 pmol/µg and 11.1137 pmol/µg and 11.3636 pmol/µg and 8.343 pmol/µg | cAMP ([1]; APC 5H): 11.3502 pmol/µg and 9.481 pmol/µg and 11.2821 pmol/µg and 9.132 pmol/µg | cAMP accumulation induced by glucagon ([1]; primary hepatocytes): did not alter | Relative P-CREB/CREB density ([2]; CT (no glucagon), CTRL about 1.0): 1.21 and 1.302 and 1.2292 | Relative P-CREB/CREB density ([2]; GLUC (glucagon), CTRL about 2.91): 3.03 and 2.994 and 2.993 | CREB phosphorylation induced by glucagon ([2]; primary hepatocytes): very little effect | CRTC2 dephosphorylation or nuclear translocation ([2]; primary hepatocytes, APC 10 μM, glucagon): very little effect | CREB/CRTC2-mediated transcription of PER2 (mouse Per2 promoter): reduced | interaction of CREB and CRTC3 (CREB / CRTC3 interaction): attenuated
